# Tested on: diabetic wounds
# Test: Closure of full thickness flank skin wounds in diabetic mice, topical treatment
# Assay type: in vivo, mice (C57BLKs/Bom db/db)
# Settings: for % wound area remaining relative to day 0 (mean ± standard error): six wounds
# Procedure: Female diabetic mice (C57BLKs/Bom db/db; B&M, Denmark) aged approximately 16 weeks will be used in this study. On arrival mice were housed in groups of 5 to 10 according to Home Office regulations. On the first day of the study period, animals were housed in individual cages (cage dimensions 35×15×15 cm with sawdust bedding, changed twice weekly), in an environment maintained at an ambient temperature of 23° C. with 12-hour light/dark cycles. They were provided with food (Standard Rodent Diet) and water ad libitum. To acclimatise the animals to their surroundings, prior to experimentation, they were housed for a minimum of one week without disturbance, other than to refresh their bedding and to replenish their food and water provisions. Following wounding, animals were monitored until they had fully recovered from the procedure and then housed under individual conditions for the remainder of the study period. All animal procedures were carried out in a Home Office licensed establishment in accordance with Home Office Licence procedures. Animals were anaesthetised (halothane and air) and shaved. A single standardised full thickness wound (7.5 mm×7.5 mm) was created in the flank skin of each experimental animal. Wounds received, saline [50 μl], vehicle [50 μl pH 4.0 vehicle], 1 μg of p38 MAP kinase inhibitor [in 50 μl pH 4.0 vehicle] or 10 μg of p38 MAP kinase inhibitor [in 50 μl pH 4.0 vehicle]. The p38 MAP kinase inhibitor had the following formula: All wounds were secondarily dressed with a 1.5×1.5 cm pad of RELEASE dressing (Johnson & Johnson Wound Management). The RELEASE pad was held in place using a circumferential band of the occlusive film dressing Bioclusive (Johnson & Johnson Wound Management). Animals were re-anaesthetized and treatments re-applied on days 2, 4, 7, 9 and 11-post wounding. Immediately after wounding and subsequently on days 2, 4, 7, 9, 11 and 14 all wounds were digitally photographed together with a calibration/identity plate. On day 14 of the study animals will be euthanised. Image Pro image analysis software (version 4.1.0.0, Media Cybernetics, USA) was used to calculate wound closure from wound images in each of the experimental groups over time. Non-parametric analysis (Kruskal Wallis—Multivariate Analysis followed by ad hoc two sample Mann Whitney U-test analysis) will be used to test the significance of any inter-group differences in wound closure.
smiles,measurement,setting,value
CC(=O)N1CCN(c2c(-c3ccncc3)c(-c3ccc(F)cc3)c(C#N)n2C)CC1 [p38 MAP kinase inhibitor],% wound area remaining relative to day 0 (mean ± standard error),"1.0 μg per wound in 50 μl pH 4.0 vehicle, day 2 post-wounding",86.15 ± 6.63%
same,% wound area remaining relative to day 0 (mean ± standard error),"1.0 μg per wound in 50 μl pH 4.0 vehicle, day 4 post-wounding",66.32 ± 6.58%
same,% wound area remaining relative to day 0 (mean ± standard error),"1.0 μg per wound in 50 μl pH 4.0 vehicle, day 7 post-wounding",38.65 ± 2.62%
same,% wound area remaining relative to day 0 (mean ± standard error),"1.0 μg per wound in 50 μl pH 4.0 vehicle, day 9 post-wounding",18.87 ± 4.44%
same,% wound area remaining relative to day 0 (mean ± standard error),"1.0 μg per wound in 50 μl pH 4.0 vehicle, day 11 post-wounding",6.03 ± 2.17%
same,% wound area remaining relative to day 0 (mean ± standard error),"10.0 μg per wound in 50 μl pH 4.0 vehicle, day 2 post-wounding",75.48 ± 6.32%
same,% wound area remaining relative to day 0 (mean ± standard error),"10.0 μg per wound in 50 μl pH 4.0 vehicle, day 4 post-wounding",58.34 ± 6.49%
same,% wound area remaining relative to day 0 (mean ± standard error),"10.0 μg per wound in 50 μl pH 4.0 vehicle, day 7 post-wounding",29.80 ± 4.66%
same,% wound area remaining relative to day 0 (mean ± standard error),"10.0 μg per wound in 50 μl pH 4.0 vehicle, day 9 post-wounding",13.31 ± 1.64%
same,% wound area remaining relative to day 0 (mean ± standard error),"10.0 μg per wound in 50 μl pH 4.0 vehicle, day 11 post-wounding",3.34 ± 0.96%
same,closure compared to saline treatment,"10.0 μg, day 2, 7, 11 p=0.055, day 9 p=0.025 (statistically significant)",noticeably more rapid
same,wound size compared to citrate treated wounds,"10.0 μg, day 9 and day 11 assessment points",statistically smaller
same,closure of diabetic wounds compared to treatment with the vehicle,"versus Citrate Buffer, pH 4.0, effect most apparent for the highest dose",appeared to accelerate the closure of diabetic wounds

# Source: US8957076B2, “Wound healing” (Systagenix Wound Management (US), Inc., priority 2004, dated 2015)
